In patent US11491148B2, “Amide derivatives useful in the treatment of HBV infection or HBV-induced diseases” (Janssen Sciences Ireland Unlimited Company, priority 2019, dated 2022):
Read-outs that look alike come from different tables or passages of the source.

How the values were obtained:
HBV = experiment: Anti-HBV activity, intracellular HBV DNA by real-time PCR (HBV-AVE-HepG2.117); assay type: cell-based, Hepatitis B virus; conditions: read-out: HBV-AVE-HepG2.117 EC50 (μM; mean value)
Method: The anti HBV activity was measured using the HepG2.117 cell line, a stable, inducible HBV producing cell line, which replicates HBV in the absence of doxicycline (Tet-off system). The HepG2 cell line is available from ATCC®) under number HB-8065. Transfection of the HepG2 cell line can be as described in Sun and Nassal 2006 Journal of Hepatology 45 (2006) 636-645 “Stable HepG2- and Huh7-based human hepatoma cell lines for efficient regulated expression of infectious hepatitis B virus”.
For the antiviral assay, HBV replication was induced, followed by a treatment with serially diluted compound in 96-well plates. After 3 days of treatment, the antiviral activity was determined by quantification of intracellular HBV DNA using real-time PCR and an HBV specific primer set and probe.

HepG2.117 cells = experiment: Cytotoxicity, ATPlite cell viability (TOX-HepG2.117); assay type: cell-based, human
Method: (§1) Cytotoxicity of the compounds was tested using HepG2 or HepG2.117 cells, incubated for 3 days in the presence of compounds. The viability of the cells was assessed using the Perkin Elmer ATPlite Luminescence Assay System.”

[1] = as above; assay type: cell-based, human; conditions: human; HepG2.117 cells, incubated for 3 days, ATPlite, mean value
Method: as §1

[2] = HepG2.117 cell line, 3 days of treatment, intracellular HBV DNA, mean value
[3] = Hepatitis B virus, HepG2.117, 72 h, HepG2.117 cell line, 3 days of treatment, intracellular HBV DNA, mean value

Compound | EC50 (HBV; [2]) [µM] | CC50 (HepG2.117 cells) [nM] | EC50 (HBV; [3]) [µM] | CC50 at 3 days [1] [µM] | EC50 (HBV; Hepatitis B virus, HepG2.117, 72 h) [µM]
C[C@H]1[C@H](C(=O)Nc2cc(F)c(F)c(F)c2)CCN1C(=O)C(=O)NC1(c2c[nH]nn2)CC(F)(F)C1 [C3′] | > 2.5 | > 50000 |  |  | 
C[C@H]1[C@H](C(=O)Nc2ccc(F)c(C#N)c2)CCN1C(=O)C(=O)NC1(c2c[nH]nn2)CC(F)(F)C1 [C6′] | 2.91 | > 50000 |  |  | 
O=C(NC1(c2c[nH]nn2)CC(F)(F)C1)C(=O)N1CC[C@H](C(=O)Nc2ccnc(Cl)c2)C1 [C11] |  |  | 1.5 | > 50 | 
O=C(NC1(c2c[nH]nn2)CC(F)(F)C1)C(=O)N1CC[C@H](C(=O)Nc2ccnc(C(F)F)c2)C1 [C12] |  |  | 1.29 | > 50 | 
C[C@H]1C[C@H](C(=O)Nc2ccc(F)c(C#N)c2)CN1C(=O)C(=O)NC1(c2c[nH]nn2)CC(F)(F)C1 [C13] |  |  | 0.061 | > 50 | 
C[C@H]1[C@@H](C(=O)Nc2ccc(F)c(C(F)F)c2F)CCN1C(=O)C(=O)NC1(c2c[nH]nn2)CC(F)(F)C1 [C14] |  |  | 0.019 | > 50 | 
C[C@H]1[C@@H](C(=O)Nc2ccc(Cl)c(Cl)c2)CCN1C(=O)C(=O)NC1(c2c[nH]nn2)CC(F)(F)C1 [C15] |  |  | 0.014 | 35.2 | 
C[C@H]1[C@@H](C(=O)Nc2cc(F)c(F)c(Cl)c2)CCN1C(=O)C(=O)NC1(c2c[nH]nn2)CC(F)(F)C1 [C16] |  |  | 0.006 | > 50 | 
C[C@H]1[C@@H](C(=O)Nc2ccc(F)c(Cl)c2F)CCN1C(=O)C(=O)NC1(c2c[nH]nn2)CC(F)(F)C1 [C17] |  |  | 0.01 | > 50 | 
C[C@H]1[C@@H](C(=O)Nc2ccc(F)c(C(F)(F)F)c2)CCN1C(=O)C(=O)NC1(c2c[nH]nn2)CC(F)(F)C1 [C18] |  |  | 0.012 | > 50 | 
C[C@H]1C[C@H](C(=O)Nc2cc(F)c(F)c(F)c2)CN1C(=O)C(=O)NC1(c2c[nH]nn2)CC(F)(F)C1 [C19] |  |  | 0.019 | > 50 | 
C[C@H]1[C@@H](C(=O)Nc2ccc(F)c(Cl)c2)CCN1C(=O)C(=O)NC1(c2c[nH]nn2)CC(F)(F)C1 [C20] |  |  | 0.012 | > 50 | 
C[C@H]1[C@@H](C(=O)Nc2cc(F)c(F)c(Br)c2)CCN1C(=O)C(=O)NC1(c2c[nH]nn2)CC(F)(F)C1 [C21, (2S,3S)—N-(3-bromo-4,5-difluorophenyl)-1-(2-((3,3-difluoro-1-(1H-1,2,3-triazol-4-yl)cyclobutyl)amino)-2-oxoacetyl)-2-methylpyrrolidine-3-carboxamide] |  |  |  | > 50 | 0.012
C[C@H]1[C@@H](C(=O)Nc2ccc(F)c(F)c2F)CCN1C(=O)C(=O)NC1(c2c[nH]nn2)CC(F)(F)C1 [C22] |  |  | 0.026 | > 50 | 
Cc1c(F)ccc(NC(=O)[C@H]2CCN(C(=O)C(=O)NC3(c4c[nH]nn4)CC(F)(F)C3)[C@H]2C)c1F [C23] |  |  | 0.016 | > 50 | 
Cc1cc(NC(=O)[C@H]2CCN(C(=O)C(=O)NC3(c4c[nH]nn4)CC(F)(F)C3)[C@H]2C)cc(Cl)c1F [C24] |  |  | 0.012 | > 50 | 
C[C@H]1[C@@H](C(=O)Nc2cc(F)c(F)c(F)c2)CCN1C(=O)C(=O)NC1(c2nn[nH]c2Cl)CC(F)(F)C1 [C26] |  |  | 0.176 | > 50 | 
Cc1cc(NC(=O)[C@H]2CCN(C(=O)C(=O)NC3(c4c[nH]nn4)CC(F)(F)C3)[C@H]2C)cc(F)c1F [C27] |  |  | 0.012 | > 50 | 
C[C@H]1C[C@H](C(=O)Nc2cc(F)c(F)c(F)c2)[C@H](C)N1C(=O)C(=O)NC1(c2c[nH]nn2)CC(F)(F)C1 [C35] |  |  | 0.011 | > 50 | 
C[C@H]1C[C@H](C(=O)Nc2cc(F)c(F)c(F)c2)[C@H](C)N1C(=O)C(=O)NC(CC(F)(F)F)c1c[nH]nn1 (stereo partly shown) [C36] |  |  | < 0.01 | > 50 | 
Cc1[nH]nnc1C1(NC(=O)C(=O)N2CC[C@H](C(=O)Nc3cc(F)c(F)c(F)c3)[C@@H]2C)CC(F)(F)C1 [C38] |  |  | 0.012 | > 50 | 
C[C@H]1[C@@H](C(=O)Nc2cc(F)c(F)c(F)c2)CCN1C(=O)C(=O)N[C@]1(c2c[nH]nn2)C[C@H](C(F)F)C1 [C39c] |  |  | 0.062 | > 50 | 
C[C@H]1[C@@H](C(=O)Nc2cc(F)c(F)c(F)c2)CCN1C(=O)C(=O)N[C@]1(c2c[nH]nn2)C[C@@H](C(F)F)C1 [C39t] |  |  | 0.033 | > 50 | 
